A short description of series [1]: TU solubility in various solubilizers. The following applies: testosterone undecanoate dissolved in the named vehicle.
For series [2] the following is noted: cited from earlier work.
The subject of a further series is plasma lipids. The following applies: interesterified with margarine, mild hypercholesteremia; cited from earlier work.
In series [3] the test system is absorption of cholesterol. The settings on record: 1 g ingested, meal containing 500 mg of cholesterol; cited from earlier work.
The conditions of series [4]: 200 mg oral twice daily, cited from earlier work.
For series [5] the following is noted: cited from earlier work. The source holds these as a separate data set.

The structures appear in SMILES notation. ≈ marks a conversion by molar mass, not a printed value. Read-outs that look alike come from different tables or passages of the source.

For `CCCCCCCC/C=C\CCCCCCCC(=O)OCC(COC(=O)CCCCCCC/C=C\CCCCCCCC)OC(=O)CCCCCCC/C=C\CCCCCCCC` [Glyceryl trioleate (Capmul GTO), Glyceryl trioleate], the “TU Solubility (mg/g) at 37 C.” value in series [1] is 154 mg/g.

As for `CCCCCCCCCCCCCC(=O)OC(C)C` [Crodamol IPM (isopropyl myristate), isopropyl myristate], in series [1], the “TU Solubility (mg/g) at 37 C.” value was found to be 295 mg/g.

For `CC/C=C\C/C=C\C/C=C\CCCCCCCC(=O)O` [Linolenic acid], the “TU Solubility (mg/g) at 37 C.” value in series [1] was 162 mg/g.

Turning to `C[C@]12CC[C@H]3[C@@H](CCC4=CC(=O)CC[C@@]43C)[C@@H]1CC[C@@H]2O` [testosterone], the oral bioavailability in series [2] (dosed as a suspension in oil) is reported as 1%. Moreover, in series [2] (in vivo), the “circulating fraction bound to sex hormone binding globulin and albumin” value is recorded as > 98%; the plasma half-life was 10 to 30 min.

Regarding `CC[C@H](CC[C@@H](C)[C@H]1CC[C@H]2[C@@H]3CC[C@H]4C[C@@H](O)CC[C@]4(C)[C@H]3CC[C@]12C)C(C)C` [sitostanol], in the series with plasma lipids, the “mean 1-year reduction in plasma cholesterol” value is recorded as 10.2%.

`CCOCCOCCO` [Transcutol HP, diethylene glycol monoethyl ether]: the “TU Solubility (mg/g) at 37 C.” value in series [1] worked out at 180 mg/g.

In the case of `CCCCCCCC/C=C\CCCCCCCC(=O)O` [Oleic acid], the “TU Solubility (mg/g) at 37 C.” value in series [1] was 405 mg/g.

As to `Cc1c(C)c2c(c(C)c1O)CCC(C)(CCCC(C)CCCC(C)CCCC(C)C)O2` (racemic) [dl-alpha-tocopherol], in series [1], the “TU Solubility (mg/g) at 37 C.” value is listed as 527 mg/g.

`CCCCC/C=C\C/C=C\CCCCCCCC(=O)OCC` [Ethyl linoleate]: the “TU Solubility (mg/g) at 37 C.” value in series [1] came out at 230 mg/g.

As for `CC[C@H](CC[C@@H](C)[C@H]1CC[C@H]2[C@@H]3CC=C4C[C@@H](O)CC[C@]4(C)[C@H]3CC[C@]12C)C(C)C` [ß-sitosterol], the “reduction of absorption of cholesterol” value in series [3] is 42%.

As for `CCCCCCCC/C=C\CCCCCCCC(=O)OCC` [Crodamol EO (ethyl oleate), ethyl oleate], the “TU Solubility (mg/g) at 37 C.” value in series [1] was found to be 221 mg/g.

For the compound `CCCCCC[C@@H](O)C/C=C\CCCCCCCC(=O)O` [Ricinoleic acid], the “TU Solubility (mg/g) at 37 C.” value in series [1] amounted to 244 mg/g.

In the case of `CCCCC/C=C\C/C=C\CCCCCCCC(=O)O` [Linoleic acid], the “TU Solubility (mg/g) at 37 C.” value in series [1] turned out to be 391 mg/g.

With `CN1CCCC1=O` [N-methyl pyrolidone], in series [1], the “TU Solubility (mg/g) at 37 C.” value is given as >500 mg/g.

Regarding `CCCCCCCCCCC(=O)O[C@H]1CC[C@H]2[C@@H]3CCC4=CC(=O)CC[C@]4(C)[C@H]3CC[C@]12C` [TU, testosterone undecanoate], the oral bioavailability entry in series [2] (dosed with normal fat meal (30% calories from fat), solution of TU in oleic acid) is “about 7%”. Further, in series [2] (in vivo), the “fraction absorbed via the intestinal lymphatic system” value is recorded as “More than 80%”.

In the case of `C[C@]12CC[C@H]3[C@@H](CCC4=CC(=O)CC[C@@]43C)[C@@H]1CC[C@@H]2O` [micronized testosterone, testosterone], the “time of total serum testosterone within the normal range” value in series [4] (two doses) is reported as “greater than 12 hours”. Besides, the “time at desired level of serum testosterone for each peak” value in series [4] is reported as “about 4 hours”.

For the compound `CC(C)CCC[C@@H](C)[C@H]1CC[C@H]2[C@@H]3CC=C4C[C@@H](O)CC[C@]4(C)[C@H]3CC[C@]12C` [Cholesterol], the water solubility in series [5] is ~0.01 µg/mL (≈ 0.0259 µM).

Take `CCCCCCCCCCCCCCCC(=O)OC(C)C` [Crodamol IPP (isopropyl palmitate), isopropyl palmitate]: the “TU Solubility (mg/g) at 37 C.” value in series [1] was 215 mg/g.

The values above are taken from patent US11617758B2, “Emulsion formulations” (Marius Pharmaceuticals LLC, priority 2013, dated 2023).
